These results are taken from ChEMBL document CHEMBL5321276, “Novel Benzimidazoles as Potent Small-Molecule Inhibitors and Degraders of V-Domain Ig Suppressor of T-Cell Activation (VISTA)” (J Med Chem, 2023).

The source made the active and inactive calls. No cut-off for these calls is given here.

Series [1] has as its target T1, V-type immunoglobulin domain-containing suppressor of T-cell activation (Homo sapiens, UniProt Q9H7M9).
T1 sequence (Q9H7M9 whole entry): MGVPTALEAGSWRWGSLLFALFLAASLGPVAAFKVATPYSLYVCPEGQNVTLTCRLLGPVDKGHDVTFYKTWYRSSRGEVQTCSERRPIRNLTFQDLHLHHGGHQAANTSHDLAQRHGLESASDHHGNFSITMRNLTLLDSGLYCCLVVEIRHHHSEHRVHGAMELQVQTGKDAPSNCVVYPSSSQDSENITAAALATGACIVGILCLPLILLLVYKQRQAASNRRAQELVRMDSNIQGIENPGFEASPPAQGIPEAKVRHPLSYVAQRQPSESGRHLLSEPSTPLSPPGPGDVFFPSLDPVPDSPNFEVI
Nature of the series: Binding affinity to human VISTA assessed as dissociation constant by SPR assay. On the technique in general: SPR reads the build-up and loss of mass on a sensor chip optically.

In series [2] the target is T2, V-type immunoglobulin domain-containing suppressor of T-cell activation (Homo sapiens) (UniProt Q9H7M9).
T2 sequence (whole entry): T1 sequence (Q9H7M9 whole entry)
Put plainly: Inhibition of Fc fused VISTA in CD3/CD28/CD2 T cell activator stimulated human PBMC cells assessed as induction of IFN-gamma secretion at 5 to 10 uM measured after 48 hrs by ELISA assay. Particulars: dose 5-10 µM. It is filed as cell-based.

The test system of series [3] is CT26. Nature of the series: Antitumor activity against mouse CT26 cells implanted in BALB/c mouse assessed as reduction in tumor growth at 60 mg/kg, po administered once daily for 15 days. Type of series: functional, organism-based. As to conditions: time 15.0 day.
The subject of series [4] is HepG2. Nature of the series: Induction of autophagy in human HepG2 cells assessed as induction of VISTA degradation at 5 uM by Western blotting analysis. Type of series: functional, cell-based.
Series [5] has as its system CT26. Nature of the series: Antitumor activity against po dosed mouse CT26 cells implanted in BALB/c mouse assessed as reduction in tumor growth administered once daily for 15 days. Type of series: functional, organism-based. Particulars: dose 30-120 mg/kg, time 15.0 day.
Series [6] concerns HepG2. Nature of the series: Induction of autophagy in human HepG2 cells harboring adenovirus-mCherry-GFP-LC3B assessed as increase in LC3 puncta accumulation measured after 24 hrs by inverted fluorescence microscopic analysis. It is filed as functional, cell-based. As to conditions: dose 5-10 µM.
Series [7] has as its system MDA-MB-231. Put plainly: Antitumor immunity against human MDA-MB-231 cells cocultured with CD3/CD28/CD2 T cell activator stimulated human PBMC cells assessed as reduction in cell growth by measuring LDH release pre-treated with compound for 2 hrs measured after 12 hrs. It is filed as functional, cell-based. Particulars: dose 0.313-5 µM, time 14.0 hrs.
In series [8] the test system is HepG2. Nature of the series: Induction of autophagy in human HepG2 cells assessed as increase in LC3II expression at 10 uM measured after 24 hrs in presence of chloroquine by Western blotting analysis. Type of series: functional, cell-based. (In general: Immunoblotting shows a protein as a band on a membrane.)
Series [9] concerns HepG2. Put plainly: Induction of autophagy in human HepG2 cells assessed as induction of VISTA degradation at 10 uM measured after 24 hrs in presence of 3-MA by Western blotting analysis. It is filed as functional, cell-based.
The subject of series [10] is CT26. Put plainly: Antitumor activity against mouse CT26 cells implanted in BALB/c mouse assessed as tumor shrinkage at 30 to 120 mg/kg, po administered once daily for 15 days by Hematoxylin and eosin based analysis. It is filed as functional, organism-based. As to conditions: dose 30-120 mg/kg, time 15.0 day.
For series [11], the system named is HepG2. Nature of the series: Induction of autophagy in human HepG2 cells assessed as induction of VISTA degradation at 10 uM measured after 24 hrs in presence of chloroquine by Western blotting analysis. It is filed as functional, cell-based.
Series [12] relates to CT26. Put plainly: Antitumor activity against mouse CT26 cells implanted in BALB/c mouse assessed as tumor growth inhibition at 30 mg/kg, po administered once daily for 15 days. Type of series: functional. As to conditions: CT26, 360 h, time 15 day, read-out: TGI.
Series [13] can be described thus: Toxicity in BALB/c mouse implanted with mouse CT26 cells assessed as mortality at 30 to 120 mg/kg, po administered once daily for 15 days. Type of series: organism-based. As to conditions: in vivo, 360 h, dose 30-120 mg/kg, time 15 day.
Series [14] in a line: Toxicity in BALB/c mouse implanted with mouse CT26 cells assessed as reduction in body weight at 30 to 120 mg/kg, po administered once daily for 15 days. Type of series: organism-based. As to conditions: in vivo, 360 h, dose 30-120 mg/kg, time 15 day.
Series [15] concerns CT26. Nature of the series: Antitumor activity against mouse CT26 cells implanted in BALB/c mouse assessed as tumor growth delay at 30 to 120 mg/kg, po administered once daily for 15 days by Hematoxylin and eosin based analysis. Type of series: functional, organism-based. Particulars: dose 30-120 mg/kg, time 15.0 day.
The subject of series [16] is HepG2. Nature of the series: Induction of autophagy in human HepG2 cells assessed as induction of VISTA degradation measured after 24 hrs by Western blotting analysis. It is filed as functional, cell-based. As to conditions: dose 5-10 µM.
Series [17] deals with HepG2. Nature of the series: Induction of autophagy in human HepG2 cells assessed as induction of VISTA degradation at 10 uM measured after 24 hrs in presence of MG132 by Western blotting analysis. Type of series: functional, cell-based.
The subject of a further series is PBMC. Nature of the series: Cytotoxicity against human PBMC cells assessed as reduction in cell viability at 5 uM. It is filed as toxicity, cell-based.
For series [18], the system named is CT26. Put plainly: Antitumor activity against mouse CT26 cells implanted in BALB/c mouse assessed as tumor growth inhibition at 60 mg/kg, po administered once daily for 15 days. Type of series: functional. Particulars: CT26, 360 h, time 15 day, read-out: TGI.
In series [19] the test system is CT26. Nature of the series: Antitumor activity against mouse CT26 cells implanted in BALB/c mouse assessed as tumor growth inhibition at 120 mg/kg, po administered once daily for 15 days. As to conditions: CT26, 360 h, time 15 day, read-out: TGI. It is filed as functional.
The nature of series [20]: Oral bioavailability in Sprague-Dawley rat at 25 mg/kg measured upto 24 hrs by LC-MS/MS analysis. Particulars: in vivo. Type of series: ADME, organism-based.
Series [21] deals with MDA-MB-231. Put plainly: Cytotoxicity against human MDA-MB-231 cells assessed as reduction in cell viability at 5 uM. Type of series: toxicity, cell-based. Particulars: mda-mb-231, 5 µM.
For series [22], the target named is T3, V-type immunoglobulin domain-containing suppressor of T-cell activation (Mus musculus, UniProt Q9D659).
T3 sequence (Q9D659 whole entry): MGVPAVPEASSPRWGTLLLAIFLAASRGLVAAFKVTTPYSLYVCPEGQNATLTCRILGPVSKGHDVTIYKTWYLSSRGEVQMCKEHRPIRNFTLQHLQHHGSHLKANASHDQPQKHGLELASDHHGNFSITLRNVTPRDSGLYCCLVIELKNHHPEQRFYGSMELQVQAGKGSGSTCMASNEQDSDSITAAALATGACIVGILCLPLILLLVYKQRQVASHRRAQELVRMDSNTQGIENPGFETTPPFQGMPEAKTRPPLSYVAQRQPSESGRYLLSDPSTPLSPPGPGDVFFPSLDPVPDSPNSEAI
Nature of the series: Binding affinity to mouse VISTA assessed as dissociation constant incubated for 10 mins by MST assay.

Series [23] relates to CT26. Put plainly: Antitumor activity against po dosed mouse CT26 cells implanted in BALB/c mouse assessed as increase in infiltration of CD8 positive cells in tumor administered once daily for 15 days by DAPI staining based fluorescent inverted microscopic analysis. Type of series: functional, organism-based. As to conditions: dose 30-120 mg/kg, time 15.0 day.
Series [24] relates to CT26. Nature of the series: Antitumor activity against mouse CT26 cells implanted in BALB/c mouse assessed as induction of VISTA degradation in tumor at 30 to 120 mg/kg, po administered once daily for 15 days by Western blotting analysis. Type of series: functional, organism-based. As to conditions: dose 30-120 mg/kg, time 15.0 day.
The test system of series [25] is HepG2. Put plainly: Induction of autophagy in human HepG2 cells assessed as induction of VISTA degradation at 10 uM measured upto 4 hrs in presence of cycloheximide by Western blotting analysis. It is filed as functional, cell-based.
The subject of series [26] is HepG2. Nature of the series: Induction of autophagy in human HepG2 cells assessed as induction of VISTA degradation at 10 uM measured after 24 hrs in presence of pepstatin A by Western blotting analysis. It is filed as functional, cell-based.

In the case of `Cc1c(-c2ccccc2)ccc2nc(-c3cccc(CNCC[C@@H]4CCC(=O)N4)c3)[nH]c12`, in [1], the Kd was 0.763 µM.
As to `CC(=O)NCCNCc1cccc(-c2nc3ccc(-c4ccccc4)c(C)c3[nH]2)c1`, the Kd in [1] is 0.187 µM. In addition, the inhibition result in series [2] was “Active”.
For the compound `Cc1c(-c2ccccc2)ccc2nc(-c3cccc(CNC[C@H](O)CC(=O)O)c3)[nH]c12`, in series [1], the Kd was determined as 1.78 µM.
Regarding `Cc1c(-c2ccccc2)ccc2nc(-c3cccc(CNCC(=O)O)c3)[nH]c12`, the Kd in [1] is 1.05 µM.
Regarding `CC(=O)NCCNCc1ccc(-c2nc3ccc(-c4ccccc4)c(C)c3[nH]2)cc1`, in [1], the Kd came to 0.374 µM. In [2], the inhibition entry was “Active”.
For the compound `Cc1c(-c2ccccc2)ccc2nc(-c3cccc(CNCCN)c3)[nH]c12`, the Kd in series [1] worked out at 0.491 µM.
As for `CC(=O)NCCNCc1cccc(-c2nc3cccc(C)c3[nH]2)c1`, the Kd in [1] worked out at 3.12 µM.
Consider `C[C@@H](O)[C@H](NC(=O)N[C@@H](CC(N)=O)c1nc([C@@H](N)CO)no1)C(=O)O`, for which the outcome with CT26 [3] was Active. In addition, the outcome with HepG2 [4] was inactive.
`Cc1c(-c2ccccc2)ccc2nc(-c3cccc(CNCCO)c3)[nH]c12`: the Activity result was “Dose-Dependent Effect” in the series with CT26 [5]; “Dose-Dependent Effect” in the series with HepG2 [6]; “Dose-Dependent Effect” in the series with MDA-MB-231 [7]; “Non-Toxic” in series [13]; “Non-Toxic” in series [14]; “Dose-Dependent Effect” with HepG2 [16]. Besides, the Activity result was “Non-Toxic” with PBMC, “Non-Toxic” in the series with MDA-MB-231 [21] and “Dose-Dependent Effect” in the series with CT26 [23]. For the same compound, the result in the series on HepG2 [8], in the series with CT26 [10], in the series with CT26 [15], in the series with HepG2 [17], in the series with HepG2 [4] and in the series with CT26 [24] was Active. The result with HepG2 [25] was Active. Besides, the result in the series with HepG2 [9], in the series on HepG2 [11] and in the series with HepG2 [26] was inactive. In addition, in the series on CT26 [12], the inhibition in vivo at 30 mg/kg came to 29%. The inhibition in vivo at 60 mg/kg in the series on CT26 [18] was found to be 41%. Besides, the inhibition result in series [2] was “Active”. The inhibition in vivo at 120 mg/kg with CT26 [19] is 59%. In [20], this compound had a bioavailability of 16%. The Kd in series [22] was 6.8 µM.
For the compound `Cc1c(-c2ccccc2)ccc2nc(-c3ccc(CNCCO)cc3)[nH]c12`, the Kd in series [1] was 1.13 µM.
Consider `CC(=O)NCCNCc1cccc(-c2nc3ccc(Br)c(C)c3[nH]2)c1`, for which the Kd in series [1] stood at 1.16 µM.

As a reminder, the Kd is the free concentration of one partner at which half of the binding sites on the other are occupied at equilibrium, for simple one-to-one binding. The term bioavailability denotes the share of a dose that reaches the circulation, judged against a reference dose that is usually intravenous.
